Measured values: patent US20250025443A1, “COMPOUNDS AND METHODS FOR TREATING CORONA VIRUSES” (CLEAR CREEK BIO, INC., priority 2021, published 2025)

biological target: SARS-CoV-2 Papain-Like Protease (PLpro) (Severe acute respiratory syndrome coronavirus 2 (2019-nCoV) (SARS-CoV-2), UniProt P0DTD1); assay: biochemical; settings: PLpro enzymatic fluorescence assay; class symbols; read-out: PLpro IC50

`Cc1ccc(OC[C@@H]2CCN2C)cc1C(=O)NC1(c2cc(/C=C/C3CC3)cc3ncccc23)CC1` [Compound 684, (S,E)-N-(1-(7-(2-Cyclopropylvinyl)quinolin-5-yl)cyclopropyl)-2-methyl-5-((1-methylazetidin-2-yl)methoxy)benzamide] and `CCCN(CCC)c1cc(C2(NC(=O)c3cc(OC[C@@H]4CCN4C)ccc3C)CC2)c2cccnc2c1` [Compound 771, (S)—N-(1-(7-(Dipropylamino)quinolin-5-yl)cyclopropyl)-2-methyl-5-((1-methylazetidin-2-yl)methoxy)benzamide] cannot be ordered by IC50: < 0.1 µM for the first, < 0.1 µM for the second.

First: COc1cc(C(C)N2CCC(C(=O)NCc3cccc(F)c3)CC2)c2cccnc2c1 (stereo not shown) [Compound 593, N-(3-Fluorobenzyl)-1-(1-(7-methoxyquinolin-5-yl)ethyl)piperidine-4-carboxamide]
Second: COc1cc(C2(NC(=O)c3cc(OC[C@H]4C[C@H](F)CN4)ccc3C)CC2)c2cccnc2c1 [Compound 556, 5-(((2R,4S)-4-Fluoropyrrolidin-2-yl)methoxy)-N-(1-(7-methoxyquinolin-5-yl)cyclopropyl)-2-methylbenzamide]
The IC50 of the first is higher: 1 to 5 µM for the first, < 0.1 µM for the second.

`Cc1ccc(-c2cc(C3(NC(=O)c4cc(OCC5CCN5C)ccc4C)CC3)c3ccccc3c2)s1` (stereo not shown) [Compound 493, 2-Methyl-5-((1-methylazetidin-2-yl)methoxy)-N-(1-(3-(5-methylthiophen-2-yl)naphthalen-1-yl)cyclopropyl)benzamide] and `Cc1ccc(OC[C@@H]2CCN2C)cc1C(=O)NC1(c2cc(-c3ccc(CO)s3)cc3ncccc23)CC1` [Compound 753, (S)-N-(1-(7-(5-(Hydroxymethyl)thiophen-2-yl)quinolin-5-yl)cyclopropyl)-2-methyl-5-((1-methylazetidin-2-yl)methoxy)benzamide] cannot be ordered by IC50: < 0.1 µM for the first, < 0.1 µM for the second.

`C=Cc1cc(C2(NC(=O)c3cc(OC[C@@H]4CCN4)ccc3C)CC2)c2cccnc2c1` [Compound 612, (S)-5-(Azetidin-2-ylmethoxy)-2-methyl-N-(1-(7-vinylquinolin-5-yl)cyclopropyl)benzamide] and `Cc1ccc(OC[C@@H]2CCN2)cc1C(=O)NC1(c2cc(-c3ccc(F)c(Cl)c3)cc3ncccc23)CC1` [Compound 666, (S)-5-(Azetidin-2-ylmethoxy)-N-(1-(7-(3-chloro-4-fluorophenyl)quinolin-5-yl)cyclopropyl)-2-methylbenzamide] cannot be ordered by IC50: < 0.1 µM for the first, < 0.1 µM for the second.

`Cc1ccc(OC[C@@H]2CCN2)cc1C(=O)NC1(c2cc(-c3ccn(-c4ccccc4)n3)cc3ncccc23)CC1` [Compound 664, (S)-5-(Azetidin-2-ylmethoxy)-2-methyl-N-(1-(7-(1-phenyl-1H-pyrazol-3-yl)quinolin-5-yl)cyclopropyl)benzamide] and `Cc1ccc(OC[C@@H]2CCN2C)cc1C(=O)NC1(c2cc(-c3ccn(C(F)F)n3)cc3ncccc23)CC1` [Compound 644, (S)-N-(1-(7-(1-(Difluoromethyl)-1H-pyrazol-3-yl)quinolin-5-yl)cyclopropyl)-2-methyl-5-((1-methylazetidin-2-yl)methoxy)benzamide] cannot be ordered by IC50: < 0.1 µM for the first, < 0.1 µM for the second.

`C=Cc1cc2c(c(C3(NC(=O)c4cc(OC[C@@H]5CCN5C)ccc4C)CC3)c1)CCCN2` [Compound 785, (S)-2-Methyl-5-((1-methylazetidin-2-yl)methoxy)-N-(1-(7-vinyl-1,2,3,4-tetrahydroquinolin-5-yl)cyclopropyl)benzamide] and `Cc1ccc(OC[C@@H](C)N)cc1C(=O)NC1(c2cc(-c3cccs3)cc3ccccc23)CC1` [Compound 543, (R)-5-(2-Aminopropoxy)-2-methyl-N-(1-(3-(thiophen-2-yl)naphthalen-1-yl)cyclopropyl)benzamide] cannot be ordered by IC50: < 0.1 µM for the first, < 0.1 µM for the second.

same assay, conditions: SARS-CoV-2 PLpro enzymatic fluorescence assay; read-out: PLpro IC50

`Cc1cc2cccnc2cc1C(=O)N[C@H](C)c1cccc(-c2ccc(CN[C@H]3CC[C@@H](O)C3)s2)c1` [Compound 154, N-((R)-1-(3-(5-((((1S,3R)-3-Hydroxycyclopentyl)amino)methyl)thiophen-2-yl)phenyl)ethyl)-6-methylquinoline-7-carboxamide] and `Cc1cc2nc[nH]c2cc1C(=O)N[C@H](C)c1cccc(-c2ccc(CN3CCCC3)s2)c1` [Compound 126, (R)-5-Methyl-N-(1-(3-(5-(pyrrolidin-1-ylmethyl)thiophen-2-yl)phenyl)ethyl)-1H-benzo[d]imidazole-6-carboxamide] fall in the same range of IC50: 1 to 5 µM for the first, 1 to 5 µM for the second.

`Cc1ccc(OCC2CCN2C)cc1C(=O)NC1(c2cccc3cnccc23)CC1` (stereo not shown) [Compound 402, N-(1-(Isoquinolin-5-yl)cyclopropyl)-2-methyl-5-((1-methylazetidin-2-yl)methoxy)benzamide] and `Cc1ccc(OCC2CCN2C)cc1C(=O)NC1(c2cc(Br)cc3ccccc23)CC1` (stereo not shown) [Compound 461, N-(1-(3-Bromonaphthalen-1-yl)cyclopropyl)-2-methyl-5-((1-methylazetidin-2-yl)methoxy)benzamide] cannot be ordered by IC50: < 0.1 µM for the first, < 0.1 µM for the second.

`Cc1ccc(OCC2CCN2C(C)C)cc1C(=O)NC1(c2cccc3ccccc23)CC1` (stereo not shown) [Compound 323, 5-((1-Isopropylazetidin-2-yl)methoxy)-2-methyl-N-(1-(naphthalen-1-yl)cyclopropyl)benzamide] and `CCN1CCC1COc1ccc(C)c(C(=O)NC2(c3cccc4ccccc34)CC2)c1` (stereo not shown) [Compound 314, 5-((1-Ethylazetidin-2-yl)methoxy)-2-methyl-N-(1-(naphthalen-1-yl)cyclopropyl)benzamide] cannot be ordered by IC50: < 0.1 µM for the first, < 0.1 µM for the second.

First: C[C@@H](NC(=O)c1ccc2cn[nH]c2c1)c1cccc2ccccc12 [Compound 124, (R)-N-(1-(naphthalen-1-yl)ethyl)-1H-indazole-6-carboxamide]
Second: Cc1ccc(OCC2CCN2C)cc1C(=O)N[C@@H](c1cccc2ccccc12)C(F)(F)F (stereo partly drawn) [Compound 386, 2-Methyl-5-((1-methylazetidin-2-yl)methoxy)-N-((S)-2,2,2-trifluoro-1-(naphthalen-1-yl)ethyl)benzamide]
The IC50 of the first is higher: > 5 µM for the first, < 0.1 µM for the second.

`Cc1ccc(CCCN)cc1C(=O)NC1(c2cccc3ccccc23)CC1` [Compound 472, 5-(3-Aminopropyl)-2-methyl-N-(1-(naphthalen-1-yl)cyclopropyl)benzamide] and `COCC(N)COc1ccc(C)c(C(=O)NC2(c3cccc4ccccc34)CC2)c1` (stereo not shown) [Compound 400, 5-(2-Amino-3-methoxypropoxy)-2-methyl-N-(1-(naphthalen-1-yl)cyclopropyl)benzamide] cannot be ordered by IC50: < 0.1 µM for the first, < 0.1 µM for the second.

`Cc1ccc(OCCN(C)C)cc1C(=O)NC1(c2ccccc2C(F)(F)F)CC1` [Compound 321, 5-(2-(Dimethylamino)ethoxy)-2-methyl-N-(1-(2-(trifluoromethyl)phenyl)cyclopropyl)benzamide] and `CCc1ccccc1C1(NC(=O)c2cc(OCCN(C)C)ccc2C)CC1` [Compound 364, 5-(2-(Dimethylamino)ethoxy)-N-(1-(2-ethylphenyl)cyclopropyl)-2-methylbenzamide] fall in the same range of IC50: 0.1 to 1 µM for the first, 0.1 to 1 µM for the second.

First: Cc1cc2c(cc1C(=O)NC1(c3cccc4ccccc34)CC1)NC(=O)C2(C)C [Compound 243, 3,3,5-Trimethyl-N-(1-(naphthalen-1-yl)cyclopropyl)-2-oxoindoline-6-carboxamide]
Second: CNCc1cc2cc(C)c(C(=O)NC3(c4cccc5ccccc45)CC3)cc2[nH]1 [Compound 221]
The IC50 of the first is higher: 1 to 5 µM for the first, < 0.1 µM for the second. The second is the more potent here.

`Cc1ccc(OC[C@@H]2CCN2)cc1C(=O)NC1(c2cccc3ncccc23)CC1` [Compound 381, (S)-5-(Azetidin-2-ylmethoxy)-2-methyl-N-(1-(quinolin-5-yl)cyclopropyl)benzamide] and `Cc1ccc(OC[C@@H]2CCN2C)cc1C(=O)NC1(c2cc(Cl)cc3ncccc23)CC1` [Compound 624, (S)-N-(1-(7-Chloroquinolin-5-yl)cyclopropyl)-2-methyl-5-((1-methylazetidin-2-yl)methoxy)benzamide] cannot be ordered by IC50: < 0.1 µM for the first, < 0.1 µM for the second.

First: Cc1cc2cc(CN)[nH]c2cc1C(=O)NC1(c2ccccc2)CC1 [Compound 246, 2-(Aminomethyl)-5-methyl-N-(1-phenylcyclopropyl)-1H-indole-6-carboxamide]
Second: Cc1cnc(OCCN(C)C)cc1C(=O)NC1(c2cccc3ccccc23)CC1 [Compound 366, 2-(2-(Dimethylamino)ethoxy)-5-methyl-N-(1-(naphthalen-1-yl)cyclopropyl) isonicotinamide]
The IC50 of the first is higher: > 5 µM for the first, 0.1 to 1 µM for the second. The second is the more potent here.

`CCSc1cc(C2(NC(=O)c3cc(OCCN(C)C)ccc3C)CC2)c2ccccc2c1` [Compound 408, 5-(2-(Dimethylamino)ethoxy)-N-(1-(3-(ethylthio)naphthalen-1-yl)cyclopropyl)-2-methylbenzamide] and `Cc1ccc(OCCN(C)C)cc1C(=O)NC1(c2cccc3cc(F)ccc23)CC1` [Compound 319, 5-(2-(Dimethylamino)ethoxy)-N-(1-(6-fluoronaphthalen-1-yl)cyclopropyl)-2-methylbenzamide] cannot be ordered by IC50: < 0.1 µM for the first, < 0.1 µM for the second.

Compared with `Cc1ccc(OCC2CCN2C)cc1C(=O)NC1(c2cc(-c3ccccc3)cc3ccccc23)CC1` (stereo not shown) [Compound 475, 2-Methyl-5-((1-methylazetidin-2-yl)methoxy)-N-(1-(3-phenylnaphthalen-1-yl)cyclopropyl)benzamide], `Cc1ccc(OC2CCCCN(C)C2)cc1C(=O)NC1(c2cccc3ccccc23)CC1` (stereo not shown) [Compound 293, 2-methyl-5-((1-methylazepan-3-yl)oxy)-N-(1-(naphthalen-1-yl)cyclopropyl)benzamide] is higher in IC50: < 0.1 µM for the first, 0.1 to 1 µM for the second. The first is the more potent here.

First: Cc1ccc(N2CCC(N)CC2)cc1C(=O)NC1(c2cccc3ccccc23)CC1 [Compound 463, 5-(4-Aminopiperidin-1-yl)-2-methyl-N-(1-(naphthalen-1-yl)cyclopropyl)benzamide]
Second: Cc1ccc(OCCN(C)C)cc1C(=O)NC1(c2cn(-c3ccccc3)c3ccccc23)CC1 [Compound 395, 5-(2-(Dimethylamino)ethoxy)-2-methyl-N-(1-(1-phenyl-1H-indol-3-yl)cyclopropyl)benzamide]
The IC50 of the first is higher: 0.1 to 1 µM for the first, < 0.1 µM for the second.

For `Cc1ccc(OCCN(C)C)cc1C(=O)NC1(c2cccc(Br)c2C)CC1` [Compound 336, N-(1-(3-Bromo-2-methylphenyl)cyclopropyl)-5-(2-(dimethylamino)ethoxy)-2-methylbenzamide], the IC50 was 0.1 to 1 µM.
